In paper PMC4543428 (European journal of pharmacology, 2015):
Structures can show the parent of a compound that is named as a salt. Where two headings read alike, the source gives them in different places.

Legend:
[1] = target: T1, sigma1 receptor (Mus musculus, UniProt O55242); assay type: in vivo; details: for ED50: mouse, ip
[2] = target: T1, sigma1 receptor; details: for Sigma1 nH (pseudo-Hill slope): 1.0 nM [3H](+)-pentazocine, 6 h, 37 °C
[3] = target: T2, sigma2 receptor (Mus musculus, UniProt Q8VD00); assay: Sigma2 receptor competition binding against [3H]DTG /; details: for Sigma2 nH (pseudo-Hill slope): 3.0 nM [3H]DTG / 500 nM (+)-pentazocine, 60 min, 25 °C; for Selectivity Ki Ratio σ2/σ1: sigma2 Ki / sigma1 Ki
T2 sequence (Q8VD00 1-176): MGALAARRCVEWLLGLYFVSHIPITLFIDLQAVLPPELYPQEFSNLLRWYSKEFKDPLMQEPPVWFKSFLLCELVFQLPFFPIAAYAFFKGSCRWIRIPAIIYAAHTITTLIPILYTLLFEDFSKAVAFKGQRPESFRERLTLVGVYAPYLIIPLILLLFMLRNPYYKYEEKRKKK

[4] = target: T1, sigma1 receptor; assay: biochemical
[5] = test system: sigma2 receptor; assay: [3H]DTG association kinetics and homologous; assay type: binding, mouse; details: 25 °C; 3.0 nM; 500 nM (+)-pentazocine

T1 sequence (O55242 whole entry): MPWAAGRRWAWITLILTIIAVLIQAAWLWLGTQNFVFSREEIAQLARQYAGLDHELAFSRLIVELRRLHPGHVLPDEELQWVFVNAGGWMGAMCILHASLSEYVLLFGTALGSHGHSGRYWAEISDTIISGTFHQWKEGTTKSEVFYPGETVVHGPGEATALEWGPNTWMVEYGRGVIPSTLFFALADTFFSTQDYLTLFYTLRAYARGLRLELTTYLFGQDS

| Molecule | Sigma1 nH (pseudo-Hill slope) ([2]; mouse lung membranes) | Sigma2 nH (pseudo-Hill slope) ([3]; mouse lung membranes) | Selectivity Ki Ratio σ2/σ1 ([3]; mouse lung membranes) | Ki [4] | other results |
| --- | --- | --- | --- | --- | --- |
| COc1ccc(CCN2CCN(C/C=C/I)CC2)cc1OC [[^125I]E-IA-DM-PE-PIPZE, E-N-1-(3´-iodoallyl)-N´-4-(3´´,4´´-dimethoxyphenethyl)-piperazine] |  |  |  |  | specific binding in vivo in brain ([1]; mouse brain, non-specific defined by BD1063): 85%; specific binding in vivo in heart ([1]; mouse heart, non-specific defined by BD1063): 50%; specific binding in vivo in lung ([1]; mouse lung, non-specific defined by BD1063 5.0 µmol / kg i.v.): 68%; specific binding in vivo in spleen ([1]; mouse spleen, non-specific defined by BD1063): 66% |
| Cc1ccc2c(c1)C1CN(C)CCC1N2C(=O)CSc1nnnn1-c1ccc(Cl)cc1 (stereo not drawn) [AG-205, Z-2-[[1-(4-chlorophenyl)-1H-tetrazol-5-yl]thio]-1-(1,2,3,4,4a,9b-hexahydro-2,8-dimethyl-5H-pyrido[4,3-b]indol-5-yl)ethanone] | 1.11 ± 0.12 | 1.06 ± 0.20 | 0.07 |  | residual specific [3H](+)-pentazocine binding at highest concentration ([2]; 0.02 M, the highest concentration used): approximately 10%; higher apparent affinity for sigma2 sites over sigma1 sites ([3]; mouse lung membranes, from Ki values): 14 fold |
| COc1ccc2c(c1)[C@]13CCCC[C@@H]1[C@H](C2)N(C)CC3 [Dextromethorphan, dextromethorphan hydrobromide] | 0.86 ± 0.12 | 1.22 ± 0.12 | 58 | 0.0717 ± 0.00656 µM | Hill slope in the presence of phenytoin ([2]; phenytoin 1.0 mM in NaOH vehicle, mouse lung membranes): 1.2 ± 0.2; shift to higher apparent sigma1 affinity caused by phenytoin ([2]; phenytoin 1.0 mM, mouse lung membranes): 5 fold; Hill slope with vehicle only ([2]; vehicle only (50 µL, 0.15 M NaOH), mouse lung membranes): 1.3 ± 0.2; sigma1 receptor occupancy across tissues at higher doses ([1]; 31.6 – 100 µmol / kg (12 – 37 mg / kg)): fully occupied; ED50 ([1]; read-out: ED50, inhibition of specific radioligand binding in heart): 1.2 µmol/kg; ED50 ([1]; read-out: ED50, inhibition of specific radioligand binding in lung): 1.2 µmol/kg; ED50 ([1]; read-out: ED50, inhibition of specific radioligand binding in spleen): 3.5 µmol/kg; ED50 ([1]; read-out: ED50 values, range across lung, heart, spleen and brain): 1.1 to 4.4 µmol/kg; ED50 ([1]; read-out: ED50 values, range across tissues): 0.4 to 1.6 mg/kg; ED50 ([1]; read-out: lung ED50): 0.4 mg/kg; IC50 [3]: 4.51 ± 0.714 µM; Ki [3]: 4.2 ± 0.664 µM |
| (−)-cocaine hydrochloride |  | 0.93 ± 0.09 |  |  |  |
| CC(C(O)c1ccc(O)cc1)N1CCC(Cc2ccccc2)CC1 (stereo not drawn) [Ifenprodil, ifenprodil (+)-tartrate] | 1.06 ± 0.11 | 0.88 ± 0.10 | 0.1 | 0.0164 ± 0.00189 µM | IC50 [3]: 0.0024 ± 0.00027 µM; Ki [3]: 0.00218 ± 0.00024 µM |
| Cc1ccccc1NC(=N)Nc1ccccc1C [DTG, 1,3-di(2-tolyl)guanidine] | 1.21 ± 0.09 | 0.90 ± 0.16 |  | 0.0752 ± 0.00801 µM |  |
| Cc1ccccc1NC(=N)Nc1ccccc1C [[^3H]DTG, [^3H]1,3-di(2-tolyl)guanidine] |  |  |  |  | time to steady state of specific binding [5]: ≤ 2 min |
| C=CCN1CCC2(C)c3cc(O)ccc3CC1C2C (single isomer, unassigned; (+)) [(+)-NANM, (+)-N-allylnormetazocine] | 1.04 ± 0.10 | 1.63 ± 0.35 | 1162 |  |  |
| C=CCN1CCC2(C)c3cc(O)ccc3CC1C2C (single isomer, unassigned; (-)) [(−)-NANM, (−)-N-allylnormetazocine] | 1.48 ± 0.28 | 0.85 ± 0.09 | 2.0 |  |  |
